Test results reported in US20170202802A1, “COMPOSITIONS, KITS AND METHODS FOR NUTRITION SUPPLEMENTATION” (Exeltis USA, Inc., priority 2016, published 2017).

Test: Double-blind, placebo controlled six-month study of nutritional status in pregnant and lactating women (Example 6)
Type: in vivo, human
Conditions: co-administration of docusate sodium with supplements
Procedure: A study is undertaken to evaluate the effectiveness of the compositions of the present invention in the treatment of patients. The objective of the study is to determine whether oral intake of the compositions results in an improvement of the nutritional status of patients with regard to the specific vitamins and minerals contained in the administered compositions.
A double-blind, placebo controlled study is conducted over a six-month period. A total of 120 subjects (60 pregnant women entering the second trimester of pregnancy and 60 lactating women), aged 20-35 years, are chosen for the study. An initial assessment of the nutritional status of each woman is conducted. Vitamin A and vitamin B6 are measured using high performance liquid chromatography. […] Vitamin B2 levels are determined by assessment of erythrocyte glutathione reductase activity. Vitamin B3 levels are assessed by measuring urinary excretion of N′-methylnicotinamide and its pyridone. Vitamin B9 is measured by radioimmunoassay (RIA), specifically. […] Vitamin B12 is measured by RIA using human intrinsic factor as a binder and also by measuring serum levels of vitamin B12. Vitamin C levels are measured by spectrophotometric and colorimetric methods and also by measuring serum levels of Vitamin C. Vitamin D is measured using an extraction double-antibody RIA (Dia Sorin, Inc., Stillwater, Minn.). […] Iodine levels are measured by HPLC. […]

CCCCC(CC)COC(=O)CC(C(=O)OCC(CC)CCCC)S(=O)(=O)[O-].[Na+] (stereo not shown) [docusate sodium]
constipation that can result from iron supplementation (frequency of normal bowel movements before and after receiving supplements): mitigates constipation
